Reference: ChEMBL document CHEMBL1201862, “PubChem BioAssay data set” (2004)
Active and inactive are the calls of the source.

Tests used:
[1] = cells
[2] = HEK-293T cell viability reduction – luminescence, B-cell screen hits, cytotoxicity control for BCR NF-kB inhibitor project, dose response (AID 489021); type: functional, cell-based;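 further: HEK-293T cells carrying an NF-kB luciferase reporter; cells exposed to compound for about 14 hours before viability readout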
[3] = target: T1, Leucine aminopeptidase (Plasmodium falciparum 3D7, UniProt Q8IL11); experiment: P. falciparum M17LAP inhibitors, primary screen, biochemical, fluorogenic H-Leu-NHMec substrate, 1536-well (AID 1619); type: functional
T1 sequence (Q8IL11 whole entry): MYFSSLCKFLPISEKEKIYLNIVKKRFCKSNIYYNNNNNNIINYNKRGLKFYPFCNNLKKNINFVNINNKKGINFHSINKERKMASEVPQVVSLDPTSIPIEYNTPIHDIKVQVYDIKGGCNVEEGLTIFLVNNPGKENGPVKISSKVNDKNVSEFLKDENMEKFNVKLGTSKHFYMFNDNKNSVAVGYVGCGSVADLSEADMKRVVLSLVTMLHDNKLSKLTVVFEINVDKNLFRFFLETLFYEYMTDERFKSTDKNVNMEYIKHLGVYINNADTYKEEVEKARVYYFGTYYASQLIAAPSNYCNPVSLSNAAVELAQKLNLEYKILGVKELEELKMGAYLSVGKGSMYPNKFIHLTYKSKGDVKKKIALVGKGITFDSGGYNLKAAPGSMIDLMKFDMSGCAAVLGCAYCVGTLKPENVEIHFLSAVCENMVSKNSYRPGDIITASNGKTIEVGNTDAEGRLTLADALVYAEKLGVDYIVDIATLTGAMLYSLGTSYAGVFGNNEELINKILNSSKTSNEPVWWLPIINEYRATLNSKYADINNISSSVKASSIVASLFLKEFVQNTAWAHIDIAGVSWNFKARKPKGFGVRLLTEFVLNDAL

[4] = test system: BJ; experiment: BJ-TERT fibroblast viability loss – cell-based, RAS-independent, luminescence, dose response (AID 1933); type: functional; details: Homo sapiens
[5] = test system: BJ; experiment: cells; type: functional, cell-based; details: Homo sapiens
[6] = test system: BJ; experiment: BJ-TERT-LT-ST fibroblast viability loss – cell-based, RAS-independent, luminescence, dose response (AID 1935); type: functional; details: Homo sapiens;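 further: BJ fibroblasts immortalized with TERT plus LT and ST oncogenes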
[7] = DRD fibroblast viability loss – cell-based, non-viral oncogenic, luminescence, dose response (AID 1934); type: functional; details: Homo sapiens
[8] = A549 cell cytotoxicity, dose response, cytotoxicity control, plate reader, cherry-pick, antagonist series (AID 743412); type: functional, cell-based
[9] = toxicity toward HepG2 liver cells – cell-based, plate reader, cherry-pick, antagonist series, cytotoxicity control, dose response (AID 743416); type: functional
[10] = viability loss in HEK293 cells – cell-based, plate reader, cherry-picked samples, cytotoxicity control, dose response (AID 743446); type: functional
[11] = microbe, parasite or virus in culture; type: functional; details: Mycobacterium tuberculosis
[12] = target: T2, Polyadenylate-binding protein 1 (Homo sapiens, UniProt P11940); experiment: MLLE binding blockers, Cy5 peptide tracer – biochemical, fluorescence polarization, Cy5-PAM2 peptide, secondary, miRNA deadenylation inhibitor project, dose response (AID 602260); type: functional; details: read-out: IC50_Mean
[13] = target: T2, Polyadenylate-binding protein 1; experiment: MLLE domain peptide-binding blockers, IC50 – biochemical, fluorescence polarization, FITC-PAM2 peptide, dose response (AID 602259); type: functional; details: read-out: IC50_Mean
[14] = viability of uninfected HEp-2 cells – cell-based, HTS, cytotoxicity control for RSV inhibitor project, dose response (AID 2410); type: functional; details: human respiratory syncytial virus
[15] = luciferase reporter signal suppression in cells – H4 neuroglioma cells, luminescence, dose response (AID 1990); type: functional, cell-based
[16] = Luminescence Cell-Based Dose Response HTS to Identify Inhibitors of 5'UTR Stem-Loop Driven Prion Protein mRNA Translation in H4 Neuroglioblastoma Cells. [Related pubchem assays: 1827 (Project Summary), 1813 (Primary HTS)]; type: functional
[17] = alpha-synuclein stem-loop luciferase translation blockers – H4 neuroglioma cells, luminescence, confirmation (AID 1988); type: functional, cell-based
[18] = target: T3, Microphthalmia-associated transcription factor (Homo sapiens, UniProt O75030); experiment: reducers of TRPM1 reporter luminescence, concentration series – cell-based, SK-MEL-5, cherry-picked, set 3, MITF inhibitor project, dose response (AID 493073); type: functional;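 further: SK-MEL-5 melanoma cells with luciferase driven by the MITF target TRPM1 promoter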
T3 sequence (O75030 whole entry): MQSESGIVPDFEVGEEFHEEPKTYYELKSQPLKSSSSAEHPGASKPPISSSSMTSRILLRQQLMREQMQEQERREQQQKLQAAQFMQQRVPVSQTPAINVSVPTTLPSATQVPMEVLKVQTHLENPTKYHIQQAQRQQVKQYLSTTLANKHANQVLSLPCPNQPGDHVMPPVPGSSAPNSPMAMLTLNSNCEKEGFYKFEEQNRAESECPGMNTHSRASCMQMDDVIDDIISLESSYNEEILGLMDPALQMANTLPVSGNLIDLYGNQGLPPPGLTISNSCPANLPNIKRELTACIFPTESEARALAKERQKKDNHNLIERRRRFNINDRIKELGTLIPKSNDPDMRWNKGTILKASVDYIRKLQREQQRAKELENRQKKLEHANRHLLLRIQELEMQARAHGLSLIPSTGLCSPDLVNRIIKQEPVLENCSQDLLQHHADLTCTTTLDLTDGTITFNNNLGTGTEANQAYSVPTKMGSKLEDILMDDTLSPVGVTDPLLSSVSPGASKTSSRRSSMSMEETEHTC

[19] = viability loss in THP-1 monocytes – THP-1 cells, cytotoxicity control for Vif-APOBEC3G degradation inhibitor project, dose response (AID 1117359); type: functional; details: THP-1
[20] = target: T4, Streptokinase A (Streptococcus pyogenes serotype M1, UniProt P10520); experiment: viability-normalized secreted streptokinase activity reduction – plasminogen activation absorbance, OD405, dose response (AID 1914); type: functional, Streptococcus pyogenes M1 GAS;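 further: secreted streptokinase activity via plasminogen activation per viability signal from cell pellet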
T4 sequence (P10520 whole entry): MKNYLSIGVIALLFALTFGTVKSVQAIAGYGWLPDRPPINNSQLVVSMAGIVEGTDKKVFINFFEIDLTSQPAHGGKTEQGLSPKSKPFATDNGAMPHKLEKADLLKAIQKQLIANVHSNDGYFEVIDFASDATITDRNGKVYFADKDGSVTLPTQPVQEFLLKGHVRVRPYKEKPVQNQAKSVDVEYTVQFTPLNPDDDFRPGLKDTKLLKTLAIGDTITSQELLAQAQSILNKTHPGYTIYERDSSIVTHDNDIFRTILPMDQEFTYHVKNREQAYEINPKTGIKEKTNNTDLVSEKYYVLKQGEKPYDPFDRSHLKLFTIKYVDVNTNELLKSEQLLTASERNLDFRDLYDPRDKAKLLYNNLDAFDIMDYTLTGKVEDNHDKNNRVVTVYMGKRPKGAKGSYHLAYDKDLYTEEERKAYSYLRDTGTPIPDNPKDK

[21] = target: T5, Corticotropin-releasing factor receptor 2/Corticotropin-releasing factor-binding protein (Homo sapiens, UniProt P24387+Q13324); experiment: Dose Response confirmation of uHTS hits for small molecule antagonists of the CRF-binding protein and CRF-R2 receptor complex.; type: functional; details: read-out: IC50_Mean
T5 sequence (Q13324 whole entry): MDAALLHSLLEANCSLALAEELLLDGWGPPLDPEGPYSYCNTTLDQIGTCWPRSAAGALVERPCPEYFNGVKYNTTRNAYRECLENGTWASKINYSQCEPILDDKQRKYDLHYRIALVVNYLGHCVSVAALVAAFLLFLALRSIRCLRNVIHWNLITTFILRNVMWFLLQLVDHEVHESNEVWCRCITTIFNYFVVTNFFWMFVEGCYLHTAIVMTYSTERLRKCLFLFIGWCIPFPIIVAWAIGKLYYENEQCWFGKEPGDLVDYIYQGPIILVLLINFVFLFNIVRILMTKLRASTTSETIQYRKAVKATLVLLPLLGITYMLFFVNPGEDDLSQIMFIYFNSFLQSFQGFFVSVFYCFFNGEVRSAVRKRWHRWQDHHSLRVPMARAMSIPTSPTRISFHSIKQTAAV
T5 sequence (P24387 whole entry): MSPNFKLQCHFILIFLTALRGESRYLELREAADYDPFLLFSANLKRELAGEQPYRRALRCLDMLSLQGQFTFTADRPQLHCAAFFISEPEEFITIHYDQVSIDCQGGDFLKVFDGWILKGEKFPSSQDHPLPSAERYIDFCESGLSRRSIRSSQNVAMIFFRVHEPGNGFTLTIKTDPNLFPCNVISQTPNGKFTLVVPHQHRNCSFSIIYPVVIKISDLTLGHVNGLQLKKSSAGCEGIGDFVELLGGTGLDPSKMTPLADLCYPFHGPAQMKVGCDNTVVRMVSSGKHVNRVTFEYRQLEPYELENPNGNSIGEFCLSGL

[22] = target: T5, Corticotropin-releasing factor receptor 2/Corticotropin-releasing factor-binding protein; experiment: activators of CRF receptor 2 with binding protein – uHTS hits, confirmation (AID 602473); type: functional; details: read-out: EC50_Mean
[23] = viability of PTEN-deleted HCT116 cells – cell-based, HCT116 PTEN knockout, dose response (AID 1047); type: functional;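 further: HCT116 colon tumor cells with PTEN knocked out; cells exposed to compound for 60 hours before readout; potency for loss of cell viability measured by luminescence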
[24] = viability of HCT116 lacking mutant beta-catenin – cell-based, human colon tumor, dose response (AID 1045); type: functional;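 further: HCT116 colon tumor cells with beta catenin knocked out; cells exposed to compound for 60 hours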

T2 sequence (P11940 whole entry, the tested form may be a part): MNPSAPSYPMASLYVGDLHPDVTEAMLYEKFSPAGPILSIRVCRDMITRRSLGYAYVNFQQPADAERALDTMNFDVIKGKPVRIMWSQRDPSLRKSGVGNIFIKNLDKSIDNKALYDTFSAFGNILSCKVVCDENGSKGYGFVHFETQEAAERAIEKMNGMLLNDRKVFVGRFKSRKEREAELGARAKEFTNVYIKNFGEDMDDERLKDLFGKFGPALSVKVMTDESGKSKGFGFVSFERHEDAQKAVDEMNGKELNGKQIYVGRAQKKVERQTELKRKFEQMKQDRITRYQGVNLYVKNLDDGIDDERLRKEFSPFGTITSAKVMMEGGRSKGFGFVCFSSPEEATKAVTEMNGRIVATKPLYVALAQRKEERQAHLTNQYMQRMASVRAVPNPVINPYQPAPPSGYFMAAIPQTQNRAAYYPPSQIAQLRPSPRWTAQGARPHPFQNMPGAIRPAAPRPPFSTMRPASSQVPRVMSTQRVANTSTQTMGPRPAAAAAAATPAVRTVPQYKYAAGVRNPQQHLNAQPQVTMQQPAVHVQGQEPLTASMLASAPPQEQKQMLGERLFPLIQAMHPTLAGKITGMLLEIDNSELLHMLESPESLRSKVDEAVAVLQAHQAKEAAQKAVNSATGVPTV

SMILES: O=C(c1ccc(Br)o1)N1CCN(c2ccc3nnc(-c4ccccc4)n3n2)CC1
- IC50 [1]: 48.6 µM (active)

SMILES: Oc1[nH]c2ccccc2c1N=Nc1nc(Nc2ccccc2)nc(N2CCOCC2)n1
- IC50 [2]: 50.1 µM (inactive)

SMILES: Cc1cc(/C=C(\C#N)C(=O)NCc2ccco2)c(C)n1-c1ccc(C(=O)O)cc1
- IC50 [3]: 41.1 µM (active)

SMILES: CC(C)N(C(=O)COC(=O)c1ccccc1C(=O)c1ccc(Cl)c([N+](=O)[O-])c1)C(C)C
- EC50 [4]: 15.1 µM (active)
- EC50 [5]: > 150 µM (not active)
- EC50 [6]: > 75 µM (inconclusive)
- EC50 [7]: > 150 µM (not active)
- AC50 [8]: 34.2 µM (active)
- AC50 [9]: > 52 µM (inactive)
- AC50 [10]: > 52 µM (inactive)

SMILES: CCC(CO)Oc1cc(NCc2ccccc2O)c2ncn(C(C)C)c2c1 (stereo unspecified)
- IC50 [2]: > 80 µM (inactive)

SMILES: CCCCCC(=O)NNC(=S)NC(=O)c1ccc([N+](=O)[O-])cc1
- IC50 [3]: 49.2 µM (active)
- CC50 [11]: > 40 µM (active)
- IC50 [12]: > 66 µM (inactive)
- IC50 [13]: > 66 µM (inactive)

SMILES: Cc1cccc(N2CCN(C(=O)c3ccccc3NC(=O)C3CC=CCC3C(=O)O)CC2)c1 (stereo unspecified)
- IC50 [3]: 19.1 µM (active)

SMILES: O=C(c1cccc(N2C(=O)C3C4C=CC(C4)C3C2=O)c1)N1CCN(c2ccccc2Cl)CC1 (stereo unspecified)
- CC50 [14]: > 50 µM (active)
- IC50 [1]: 32.6 µM (active)

SMILES: Cc1nc2cc(-c3ccc(Cl)cc3)nn2c(C)c1CCC(=O)NCc1ccco1
- IC50 [2]: > 80 µM (inactive)

SMILES: O=C(CCCN1C(=O)S/C(=C\c2ccccc2)C1=O)NNC(=O)c1ccccc1O
- EC50 [15]: < 0.1 µM (active)
- EC50 [16]: 15.2 µM (active)
- EC50 [17]: 0.157 µM (active)
- AC50 [18]: 33.9 µM (active)
- IC50 [2]: > 80 µM (inactive)

SMILES: O=C(NC(Cc1ccccc1)c1nc2ccccc2[nH]1)c1cccc([N+](=O)[O-])c1 (stereo unspecified)
- CC50 [19]: > 40 µM (active)

SMILES: CC(C)OCCCNC(=O)c1c(N)n(/N=C/c2ccccn2)c2nc3ccccc3nc12
- IC50 [2]: > 80 µM (inactive)

SMILES: Cc1cc(=O)[nH]c(SCC(=O)Nc2ccc(Br)cc2)c1C#N
- IC50 [3]: 1.48 µM (active)
- EC50 [20]: > 150 µM (not active)
- IC50 [21]: 2.16 µM (active)
- EC50 [22]: 8.83 µM (active)

SMILES: COc1ccc2cnn(CCOc3cc(C)ccc3C(C)C)c(=O)c2c1OC
- CC50 [19]: > 40 µM (active)

SMILES: CC1=NNC(=O)C1CCC(=O)N/N=C/C=C/c1ccccc1 (stereo unspecified)
- IC50 [3]: 51.4 µM (active)

SMILES: O=C(Nc1ccc(F)cc1F)NC1CCN(S(=O)(=O)c2ccc(F)cc2)CC1
- CC50 [19]: > 40 µM (active)

SMILES: Cc1ccccc1NC(=O)C1CCCN1S(=O)(=O)c1cccc2cccnc12 (stereo unspecified)
- CC50 [14]: > 50 µM (active)
- IC50 [1]: 19.5 µM (active)

SMILES: Clc1ccc(OCCCNCc2ccccc2)c(Br)c1
- EC50 [23]: 23.1 µM (active)
- EC50 [24]: 17.4 µM (active)

SMILES: Cn1c(=O)n(CCc2ccccc2)c(=O)c2c1ncn2Cc1ccccc1
- EC50 [23]: 47.7 µM (active)
- EC50 [24]: 97.4 µM (active)

SMILES: O=C(O)c1cccc(COc2cccc3ccccc23)c1
- CC50 [14]: 31.1 µM (active)
- IC50 [1]: 28.2 µM (active)

SMILES: O=C(/C=C/c1ccccc1)Nc1sc2c(c1C(=O)O)CCC2
- CC50 [14]: 19.7 µM (active)
- IC50 [1]: 26.1 µM (active)

SMILES: CSCCC(NS(=O)(=O)c1ccc2nc(O)c(O)nc2c1)C(=O)O (stereo unspecified)
- IC50 [3]: 6.94 µM (active)

SMILES: CC(=O)c1cccc(NC(S)=NCCC2=CCCCC2)c1
- EC50 [23]: 34 µM (active)
- EC50 [24]: 22.6 µM (active)
